According to ChEMBL document CHEMBL3243971, “Synthesis and beta-adrenoceptor activity of the erythro and threo isomers of substituted alpha-hydroxytrimetoquinol” (J Med Chem, 1978):

How the values were obtained:
[1] = target: T1, Adrenergic receptor beta (Rattus norvegicus) (UniProt P18090+P10608+P26255); conditions: Sprague-Dawley
Description: Agonist activity at beta-adrenoceptor in Sprague-Dawley rat adipocytes assessed as lipolysis measured as glycerol release

Cavia porcellus [2] = species on record: Cavia porcellus; test: Agonist activity at beta-adrenoceptor in guinea pig atrium assessed as positive chronotropic effect; format: tissue-based; conditions: Cardiac atrium
Cavia porcellus [3] = species on record: Cavia porcellus; test: Intrinsic activity at beta-adrenoceptor in guinea pig atrium assessed as positive chronotropic effect at 10^-10 to 10^-4 M relative to control; format: tissue-based; conditions: Cardiac atrium
Cavia porcellus [4] = species on record: Cavia porcellus; test: Agonist activity at beta-adrenoceptor in guinea pig trachea assessed as tracheal relaxation; format: tissue-based
[5] = target: T1, Adrenergic receptor beta (Rattus norvegicus); conditions: Sprague-Dawley, Plasma
Description: Agonist activity at beta-adrenoceptor in Sprague-Dawley rat adipocytes assessed as adenylate cyclase activity in plasmalemma measured as radiolabelled cAMP level after 10 mins by scintillation counting

Cavia porcellus [6] = species on record: Cavia porcellus; test: Intrinsic activity at beta-adrenoceptor in guinea pig trachea assessed as tracheal relaxation at 10^-10 to 10^-4 M relative to control; format: tissue-based
[7] = target: T1, Adrenergic receptor beta (Rattus norvegicus); conditions: Sprague-Dawley; remark: listed apart in the source
Description: Agonist activity at beta-adrenoceptor in Sprague-Dawley rat fat cells assessed as cAMP accumulation after 10 mins

pD2 [1] | pD2 [5] | pD2 [7] | SMILES | pD2 (Cavia porcellus [2]) | Intrinsic activity (Cavia porcellus [3]) | pD2 (Cavia porcellus [4]) | Intrinsic activity (Cavia porcellus [6])
7.3 | 8.5 | 7.7 | COc1cc(C[C@@H]2NCCc3cc(O)c(O)cc32)cc(OC)c1OC (racemic) | 9.1 | 0.9 | 9 | 0.88
6.8 | 6.2 | 6.4 | COc1cc([C@@H](O)[C@@H]2NCCc3cc(O)c(O)cc32)cc(OC)c1OC (racemic) | 6.1 | 0.78 | 6 | 0.76
7 | 6.8 | 6.7 | COc1cc([C@H](O)[C@@H]2NCCc3cc(O)c(O)cc32)cc(OC)c1OC (racemic) | 6.5 | 0.8 | 6.8 | 0.88
